Results as given in article PMC11237012, “Synthesis and preliminary evaluation of novel PET probes for GSK-3 imaging” (Scientific Reports, 2024).

Experiment: Radiochemical stability in human serum (rad-TLC)
Assay type: in vitro ADME
Settings: 37 °C
Procedure: The stability of PET probes [^18F]2 and [^18F]6 was measured in isotonic NaCl solution (0.9% NaCl) and mouse and human serums at 37 °C for up to 120 min by rad-TLC at 0 min, 30 min, 60 min and 120 min post incubation. The results obtained are presented in Fig. 5 and SI-Figs. S10–S15, SI-Table S1. […] The plausible explanation of the instability of [^18F]6 could be attributed to the covalent interaction of [^18F]6’s SO2F group with primary amines of amino acid residues present in the protein rich mouse and human serums. In fact, in an unrelated study, Zhao et al. reported formation of sulfonamide bond between sulfuryl fluoride and primary amine of conserved lysine residues of different kinases. […] Based on 2’s favorable blood–brain barrier permeability, nanomolar binding affinity and PET probe [^18F]2’s excellent stability in both mouse and human serums, further in vivo evaluations were performed only with PET probe [^18F]2.
Stability of [^18F]2 and [^18F]6 was assessed in isotonic NaCl solution and human and mouse serums. To perform this stability assay, 100 µL of [^18F]2 (~ 37.0 MBq) or 100 µL of [^18F]6 (~ 37.0 MBq) as in final formulation was added to 100 µL of human serum or mouse serum in a microcentrifuge tube. The resultant mixture was incubated at 37 °C for 120 min. To assess the radiochemical stability of the probes, a small aliquot (~ 0.5 µL) was taken out from the mixture in triplicate at 0 min, 30 min, 60 min and 120 min during incubation, and analyzed on a rad-TLC using 0.5:9.5 methanol: chloroform as a mobile phase using i-TLC to estimate the stability of [^18F]2 or [^18F]6 at different time points post-incubation. After Stability preparative processes initial i-TLC development was considered as 0 min.

Percentage of intact probe (0 min): 100 ± 0.0%
Percentage of intact probe (30 min): 100 ± 0.0%
Percentage of intact probe (60 min): 100 ± 0.0%
Structure (SMILES): O=C(Nc1cnccc1-c1ccc([18F])cc1)c1ccnc(NC(=O)C2CC2)c1 [[^18F]2]
